Experimental data reported in US8008329B2 (Dong Wha Pharmaceutical Co., Ltd., priority 2008, dated 2011).
Marks after values point to notes of the source that are not given here.

Test system: osteoclast differentiation
Assay: Osteoclast differentiation in co-culture of mouse bone marrow cells and ST2 cells, TRAP staining (Examples 8-9)
Assay type: cell-based
Conditions: for % number of osteoclast (vs. solvent control group): 0.1 μM each, day 7; for activity at 0.1 µM: Mus musculus, Osteoclast, 168 h, Individual treatment (compounds), day 7, read-out: % number of osteoclast (vs. solvent control group)
Experimental: The differentiation of osteoclast from mouse bone marrow cells was induced by using co-culture system, and inhibitory effect of the drug on osteoclast differentiation was evaluated by treatment of single or combination formulation. Co-culture was performed using mouse bone marrow cells and ST cells of bone marrow-derived stromal cell.
Femora and tibia were aseptically ectomized from 6˜8 week-old male ddY mice to harvest bone marrow cells by a general method using a syringe. The red blood cells were removed from the bone marrow cells, followed by centrifugation. The bone marrow cells were suspended in α-MEM medium supplemented with 10% fetal bovine serum, and the numbers of the eukaryotic cells in the harvested bone marrow cells were counted and then immediately used for a co-culture system.
ST2 cells (RIKEN Cell Bank, Tsukuba, Japan) were cultured in α-MEM medium supplemented with 10% fetal bovine serum until confluent. Then, these cells were diluted to a desired cell number, and used for the experiment.
The bone marrow cells (1×10^5 cells/well) and ST2 cells (3,000 cells/well) prepared in the above were plated in a 96-well plate using α-MEM medium supplemented with 10% fetal bovine serum. At this time, differentiation factors, 1α,25-dihydroxyvitamin D3 (10^−8 M, hereinbelow, referred to as vitamin D3) and dexamethasone (10^−8 M), were co-added to the medium to induce osteoclast differentiation. The medium was replaced with fresh media containing the differentiation factors every 2 to 3 days.
After 7 days, when multinucleated osteoclasts were observed, the medium was removed from the wells, and then the cells were fixed with PBS containing 10% Formalin. Tartrate-Resistant Acid Phosphatase (hereinbelow, referred to as TRAP) was used as a marker to measure the mature osteoclast in consideration of its characteristics showing a positive reaction to a TRAP staining solution. The TRAP staining solution was prepared in such the manner that a substrate, naphtol AS-MS phosphate and a coloring agent (Fast Red Violet LB salt) were dissolved in N,N-dimethylformamide. A 0.1 N NaHCO3 buffer solution containing 50 mM tartaric acid was added thereto, and the mixture was stored at a refrigerator prior to use as a staining solution. The osteoclasts with 6-7 or more nuclei showing a TRAP-positive reaction were counted under a microscope.
Alendronic acid was dissolved in distilled water at a concentration of 0.1 mM, and benzamidine derivatives were dissolved in DMSO at a concentration of 0.1 mM. All of them were diluted 1,000 fold with the differentiation media to a final concentration of 0.1 μM, respectively. In this connection, a control group was maintained in 0.1% DMSO.
As the above described, the sample substances and cells, which were diluted to the desired concentrations, were plated in 96-well plate, and co-cultured. On days 3 and 5 of culture, the media were replaced with fresh differentiation media containing the sample substances. On day 7 of culture, TRAP staining was performed to count the mature multinucleated osteoclast that was formed by differentiation. The mature osteoclasts with 6 or more nuclei were counted under a microscope. The results were expressed as a percentage (%) of the number of mature osteoclast observed in each experimental group, when the number of mature osteoclast in the control group (solvent only) was regarded as 100%. The experiment was performed with 4 wells per experimental group (n=4), and the results were expressed as mean value±standard deviation. In addition, the experiment was repeated at least two times, and Student t-test was applied for significant difference between experimental groups.
The experiment was performed in the same manner as in Example 8 to evaluate the effect of individual or combination treatment of risedronic acid and benzamidine derivatives of Formula 1 on osteoclast differentiation, except using 0.1 μM risedronic acid instead of 0.1 μM alendronic acid. […]

[1] = Combination treatment (alendronic acid + compounds)
[2] = Combination treatment (risedronic acid + compounds)

## Cc1nc(-c2ccc(OCCCCCOc3ccc(C(=N)NO)cc3)cc2)c(CNCc2ccccc2)s1 [Compound 306, N-hydroxy-4-(5-{4-[5-(benzylamino-methyl)-2-methyl-thiazol-4-yl]-phenoxy}-pentyloxy)-benzamidine]
[1]
  % number of osteoclast (vs. solvent control group): 18 ± 4.3^ab %
[2]
  % number of osteoclast (vs. solvent control group): 16 ± 3.3^ac %
  activity at 0.1 µM: 48 ± 6.4%

## N=C(NO)c1ccc(OCCCCCOc2ccc(-c3nc(C4CCCCC4)sc3CCN3CCSCC3)cc2)cc1 [Compound 249, N-hydroxy-4-(5-{4-[2-cyclohexyl-5-(2-thiomorpholin-4-yl-ethyl)-thiazol-4-yl]-phenoxy}-pentyloxy)-benzamidine]
[1]
  % number of osteoclast (vs. solvent control group): 24 ± 4.0^ab %
[2]
  % number of osteoclast (vs. solvent control group): 13 ± 4.8^ac %
  activity at 0.1 µM: 36 ± 4%

## CC(C)c1nc(-c2ccc(OCCCCCOc3ccc(C(=N)NO)cc3)cc2)c(CCNCCCn2ccnc2)s1 [Compound 244, N-hydroxy-4-[5-(4-{5-[2-(3-imidazol-1-yl-propylamino)-ethyl]-2-isopropyl-thiazol-4-yl}-phenoxy)-pentyloxy]-benzamidine]
[1]
  % number of osteoclast (vs. solvent control group): 19 ± 3.3^ab %
[2]
  % number of osteoclast (vs. solvent control group): 11 ± 1.7^ac %
  activity at 0.1 µM: 46 ± 2.9%

## CCCN1CCC(c2nc(-c3ccc(OCCCCCOc4ccc(C(=N)NO)cc4)cc3)c(C)s2)CC1 [Compound 72, N-hydroxy-4-{5-[4-(5-methyl-2-(1-propyl-piperidin-4-yl)-1,3-thiazol-4-yl)phenoxy]pentyloxy}-benzamidine]
[1]
  % number of osteoclast (vs. solvent control group): 30 ± 4.0^ab %
[2]
  % number of osteoclast (vs. solvent control group): 12 ± 3.2^ac %
  activity at 0.1 µM: 63 ± 1.1%

## CN1CCN(CCc2sc(N3CCOCC3)nc2-c2ccc(OCCCCCOc3ccc(C(=N)NO)cc3)cc2)CC1 [Compound 274, N-hydroxy-4-[5-(4-{5-[2-(4-methyl-piperazin-1-yl)-ethyl]-2-morpholin-4-yl-thiazol-4-yl}-phenoxy)-pentyloxy]-benzamidine]
[1]
  % number of osteoclast (vs. solvent control group): 31 ± 2.9^ab %
[2]
  % number of osteoclast (vs. solvent control group): 13 ± 1.3^ac %
  activity at 0.1 µM: 65 ± 8.9%

## Cc1nc(-c2ccc(OCCCCCOc3ccc(C(=N)NO)cc3)cc2)c(N2CCOCC2)s1 [Compound 286, N-hydroxy-4-{5-[4-(2-methyl-5-morpholin-4-yl-thiazol-4-yl)-phenoxy]-pentyloxy}-benzamidine]
[1]
  % number of osteoclast (vs. solvent control group): 29 ± 4.1^b %
[2]
  % number of osteoclast (vs. solvent control group): 26 ± 1.5^ac %
  activity at 0.1 µM: 43 ± 6.1%

## CNC(=O)c1sc(N)nc1-c1ccc(OCCCCCOc2ccc(C(=N)NO)cc2)cc1 [Compound 285, N-hydroxy-4-{5-[4-(2-amino-5-methylcarbamoyl-thiazol-4-yl)-phenoxy]-pentyloxy}-benzamidine]
[1]
  % number of osteoclast (vs. solvent control group): 53 ± 0.9%
[2]
  % number of osteoclast (vs. solvent control group): 40 ± 3.9^ac %
  activity at 0.1 µM: 70 ± 8%

## CCN(CC)CCc1sc(C)nc1-c1ccc(OCCCCCOc2ccc(C(=N)NO)cc2)cc1 [Compound 224, N-hydroxy-4-(5-{4-[5-(2-diethylamino-ethyl)-2-methyl-thiazol-4-yl]-phenoxy}-pentyloxy)-benzamidine]
[1]
  % number of osteoclast (vs. solvent control group): 53 ± 2.9^ab %
[2]
  % number of osteoclast (vs. solvent control group): 58 ± 10.8%
  activity at 0.1 µM: 77 ± 8.4%

## CC(C)c1nc(-c2ccc(OCCCCCOc3ccc(C(=N)NO)cc3)cc2)c(CC2CCCC2)s1 [Compound 47, N-hydroxy-4-{5-[4-(5-cyclopentylmethyl-2-isopropyl-1,3-thiazol-4-yl)phenoxy]pentyloxy}-benzamidine]
[1]
  % number of osteoclast (vs. solvent control group): 42 ± 4.6^b %
[2]
  % number of osteoclast (vs. solvent control group): 32 ± 3.0^ac %
  activity at 0.1 µM: 57 ± 7.9%

## Cc1nc(-c2ccc(OCc3cccc(COc4ccc(C(=N)NO)cc4)c3)cc2)c(C(C)C)s1 [Compound 209, N-hydroxy-4-{3-[4-(5-isopropyl-2-methyl-thiazol-4-yl)-phenoxymethyl]-benzyloxy}-benzamidine]
[1]
  % number of osteoclast (vs. solvent control group): 41 ± 12.0^ab %
[2]
  % number of osteoclast (vs. solvent control group): 50 ± 6.1^ac %
  activity at 0.1 µM: 74 ± 7.4%

## Cc1nc(-c2ccc(OCCCCCOc3ccc(C(=N)NO)cc3)cc2)c(CN2CCOCC2)s1 [Compound 293, N-hydroxy-4-{5-[4-(2-methyl-5-morpholin-4-ylmethyl-thiazol-4-yl)-phenoxy]-pentyloxy}-benzamidine]
[1]
  % number of osteoclast (vs. solvent control group): 15 ± 2.6^b %
[2]
  % number of osteoclast (vs. solvent control group): 11 ± 2.6^c %
  activity at 0.1 µM: 36 ± 10%

## COCCN(C)c1nc(-c2ccc(OCCCCCOc3ccc(C(=N)NO)cc3)cc2)c(CN2CCOCC2)s1 [Compound 319, N-hydroxy-4-[5-(4-{2-[(2-methoxy-ethyl) -methyl-amino]-5-morpholin-4-ylmethyl-thiazol-4-yl}-phenoxy)-pentyloxy]-benzamidine]
[1]
  % number of osteoclast (vs. solvent control group): 25 ± 2.6^ab %
[2]
  % number of osteoclast (vs. solvent control group): 11 ± 3.3^ac %
  activity at 0.1 µM: 54 ± 5.9%

## CCc1nc(-c2ccc(OCCCCCOc3ccc(C(=N)NO)cc3)cc2)c(CCN2CCSCC2)s1 [Compound 256, N-hydroxy-4-(5-{4-[2-ethyl-5-(2-thiomorpholin-4-yl-ethyl)-thiazol-4-yl]-phenoxy}-pentyloxy)-benzamidine]
[1]
  % number of osteoclast (vs. solvent control group): 26 ± 3.0^ab %
[2]
  % number of osteoclast (vs. solvent control group): 12 ± 2.4^ac %
  activity at 0.1 µM: 49 ± 0.9%

## N=C(NO)c1ccc(OCCCCCOc2ccc(-c3nc(N)sc3CC3CCCC3)cc2)cc1 [Compound 67, N-hydroxy-4-{5-[4-(2-amino-5-cyclopentylmethyl-1,3-thiazol-4-yl)phenoxy]pentyloxy}-benzamidine]
[1]
  % number of osteoclast (vs. solvent control group): 53 ± 6.4^b %
[2]
  % number of osteoclast (vs. solvent control group): 36 ± 1.7^ac %
  activity at 0.1 µM: 74 ± 11.7%

## Cc1nc(-c2ccc(OCCCCCOc3ccc(C(=N)NO)cc3)cc2)c(C2CCCC2)s1 [Compound 43, N-hydroxy-4-{5-[4-(5-cyclopentyl-2-methyl-1,3-thiazol-4-yl)phenoxy]pentyloxy}-benzamidine]
[1]
  % number of osteoclast (vs. solvent control group): 32 ± 6.6^ab %
[2]
  % number of osteoclast (vs. solvent control group): 40 ± 7.8^c %
  activity at 0.1 µM: 74 ± 14.6%

## CCCN1CCC(c2nc(-c3ccc(OCCCCCOc4ccc(C(=N)NO)cc4)cc3)c(CC3CCCC3)s2)CC1 [Compound 68, N-hydroxy-4-{5-[4-(5-cyclopentylmethyl-2-(1-propyl-piperidin-4-yl)-1,3-thiazol-4-yl)phenoxy]pentyloxy}-benzamidine]
[1]
  % number of osteoclast (vs. solvent control group): 14 ± 1.4^ab %
[2]
  % number of osteoclast (vs. solvent control group): 8 ± 1.9^ac %
  activity at 0.1 µM: 42 ± 6.9%

## CCNc1nc(-c2ccc(OCCCCCOc3ccc(C(=N)NO)cc3)cc2)cs1 [Compound 84, N-hydroxy-4-{5-[4-(2-ethylamino-1,3-thiazol-4-yl)phenoxy]pentyloxy}-benzamidine]
[1]
  % number of osteoclast (vs. solvent control group): 30 ± 5.1^ab %
[2]
  % number of osteoclast (vs. solvent control group): 6 ± 4.4^ac %
  activity at 0.1 µM: 44 ± 4.3%

## Cc1nc(-c2ccc(OCCCCCOc3ccc(C(=N)NO)c(O)c3)cc2)c(C(C)C)s1 [Compound 188, 2,N-dihydroxy-4-{5-[4-(5-isopropyl-2-methyl-1,3-thiazol-4-yl)-phenoxy]-pentyloxy}-benzamidine]
[1]
  % number of osteoclast (vs. solvent control group): 35 ± 3.2^ab %
[2]
  % number of osteoclast (vs. solvent control group): 23 ± 5.1^ac %
  activity at 0.1 µM: 56 ± 5.4%
